{"source": "paper PMC10350922", "about": "“Allosteric Inhibitors of Macrophage Migration Inhibitory Factor (MIF) Interfere with Apoptosis-Inducing Factor (AIF) Co-Localization to Prevent Parthanatos” (Journal of Medicinal Chemistry, 2023)", "key": {"MIF/ssDNA binding": {"target": "T1, MIF/ssDNA binding (Homo sapiens, UniProt P14174)", "T1 construct": "made in house; host or cells: Escherichia coli BL21", "T1 sequence (P14174 2-115 limits assumed)": "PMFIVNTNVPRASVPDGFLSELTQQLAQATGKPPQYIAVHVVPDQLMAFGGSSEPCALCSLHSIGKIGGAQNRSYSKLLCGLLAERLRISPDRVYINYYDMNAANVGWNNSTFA", "assay": "MIF/ssDNA binding assay (ZP307-labeled MIF, PA20-Q1 quenching)", "settings": "labeled MIF 1 μM, PA20-Q1 1 μM; 6y up to 100 μM", "excerpt": "Although in our hands the nuclease activity could not unambiguously be assigned to MIF (due to the possibility of bacterial contamination), there is still a possibility that MIF binds to single-stranded DNA (ssDNA). Furthermore, the direct interaction between MIF and ssDNA was investigated. We developed a MIF/ssDNA binding assay to detect and quantify the binding of MIF to ssDNA (Figure 6f). To establish this assay, we employed a MIF probe ZP307 (Figure 1c) that binds covalently to the N-terminal proline of MIF. This probe enables the fluorescent labeling of MIF.[38] The oligonucleotide Poly A was earlier described as a MIF nuclease substrate, lacking a secondary structure.[11] […] This enabled using the BHQ1-labeled poly A oligonucleotide (PA20-Q1) as an energy acceptor to quench fluorescence emission by labeling MIF once a MIF/ssDNA complex formed (Figure 6f). […]\nFive equivalents of probe ZP307 were mixed with recombinant MIF protein for MIF labeling and incubated overnight at 4 °C. […] The fluorescence (Ex488/Em520) was determined immediately using a BioTek Synergy H1 Hybrid plate reader. The wells in the absence of PA20-Q1 were considered a positive control (100% of fluorescence signal), whereas the wells without inhibitors were considered a negative control (0% of fluorescence signal)."}, "HeLa cells [1]": {"tested_on": "HeLa cells", "assay": "Immunofluorescence staining and confocal microscopy (MIF and AIF nuclear translocation)", "format": "cell-based", "method": "Next, we investigated the mechanism by which 6y protects genome DNA. Considering that […] is a crucial step in parthanatos, we tested if 6y interferes with MIF/AIF binding in vitro. […] Under control conditions, MIF and AIF are mainly located in the cytosol. Upon MNNG treatment, both MIF and AIF translocated to the nucleus.\nImmunofluorescence staining was applied to cells to determine the nuclear trans-localization of AIF and MIF. HeLa cells were seeded onto a coverslip and treated with or without 100 μM 6y for 3 h. Then, parthanatos was induced by MNNG (50 μM, 15 min). The same amount of medium in the absence of MNNG was added for the negative control group. After overnight incubation, the cells were fixed with methanol and blocked with 2% BSA in 0.1% PBS-T. AIF and MIF were detected by AIF Monoclonal Antibody (7F7AB10, Invitrogen) and MIF Polyclonal Antibody (PA5-27343, Invitrogen), respectively. Then, AIF and MIF primary antibodies were visualized by Alexa Fluor 647 conjugated anti-Mouse IgG (Invitrogen) and Alexa Fluor 488 conjugated anti-rabbit IgG (Cell Signaling Technology, Leiden, the Netherlands), respectively. After washing, coverslips were mounted onto objective slides with an anti-fading mounting medium with NucBlue stain (Invitrogen). The pictures were acquired using a Leica SP8 confocal laser scanning microscope and analyzed by ImageJ."}, "MIF [2]": {"target": "T2, MIF (Homo sapiens, UniProt P14174)", "T2 construct": "made in house; host or cells: Escherichia coli BL21, pET-20b(p) plasmid", "T2 sequence (P14174 2-115 limits assumed)": "T1 sequence (P14174 2-115 limits assumed)", "assay": "Enzyme kinetics of MIF-catalyzed PP conversion (Michaelis-Menten, Lineweaver-Burk)", "format": "biochemical", "settings": "for Vmax: 35 nM MIF", "method": "Enzyme kinetics experiments were performed to determine the mode of MIF inhibition by 6y (SI, Table S1). The rate of MIF-catalyzed PP conversion was measured at concentrations ranging from 0 to 10 mM in the absence or presence of various inhibitor concentrations (0, 1.4 μM, 2.1 μM, or 2.8 μM).\nToward this aim, 10 μL of the inhibitors was added to 190 μL of the enzyme solution and incubated for 10 min. Then, 50 μL of these solutions was mixed with 50 μL of the solutions of the substrate with different concentrations. The reactions were measured by the increase in UV absorbance at 300 nm, and the data from the first 3 min were used to calculate the initial velocities. The negative control (no MIF) was subtracted from all of the data, and the curves were fitted using nonlinear regression, Michaelis–Menten, and linear regression, Lineweaver–Burk. Vmax was defined as the maximum velocity as extrapolated by the curve fit. The Km of PP was defined as the concentration of PP at which 50% of maximum velocity was reached. The data were analyzed using GraphPad Prism 8.\n1. Supporting figures and tables\nFigure S1. Michaelis-Menten plot of MIF inhibition by 6y at the concentrations 0, 1.4, 2.1 and 2.8 µM.\nTable S1. Kinetic parameters of 6y measured at 35nM of MIF.\n(1 picture or pasted object on this page, not shown here)"}, "HeLa cells [3]": {"tested_on": "HeLa cells", "assay": "Cell morphology after MNNG treatment", "format": "cell-based", "settings": "pretreatment with 6y, dose- and time-dependent", "excerpt": "In addition, cellular morphology was investigated to see if the MIF inhibitor 6y restores the original phenotype."}, "MIF [4]": {"target": "T2, MIF", "assay": "Jump dilution assay (reversibility of binding)", "format": "biochemical", "settings": "25 μM 6y, 10 min preincubation, 20-fold dilution, 20 min", "method": "To investigate the reversibility of binding, we performed the activity recovery experiment based on pre-incubation of MIF with the inhibitor at saturated concentration followed by jump dilution. The experiment aimed to study the reversibility of the MIF complex with 6y; thus, MIF was preincubated with 25 μM 6y for 10 min before 20-fold dilution and then tested for residual enzyme activity. After 20 min of residence time, MIF tautomerase activity recovered comparably to that expected for instantaneously reversible inhibitors (Figure 4b).\nThe solution of the enzyme (1.4 μM) was preincubated with a saturating concentration of inhibitor 6y (25 μM) for 10 min. Then, the enzyme–inhibitor mixture was diluted 20-fold with boric acid buffer, then 50 μL of the mixture was mixed with 50 μL of 2 mM PP solution in ammonium acetate buffer, and recovery of the activity was measured over 20 min. In the control groups, no enzyme/inhibitor was added."}}, "note": "Entries after “also recorded” stand apart in the source; their conditions may differ.", "data": [{"smiles": "O=C(Nc1ccccc1)c1ccc(-n2cc(C(=O)NCc3cccs3)nn2)cc1", "note": "[Compound 6y, 1-(4-(Phenylcarbamoyl)phenyl)-N-(thiophen-2-ylmethyl)-1H-1,2,3-triazole-4-carboxamide]", "values": [{"measurement": "MIF/PA20-Q1 binding", "setting": "MIF/ssDNA binding", "result": "unable to block MIF/PA20-Q1 binding; also recorded: could not replace the oligonucleotide"}, {"measurement": "AIF nuclear translocation upon MNNG stimulation", "setting": "HeLa cells [1]; 100 μM 6y, MNNG 50 μM 15 min", "result": "uninfluenced"}, {"measurement": "MIF nuclear translocation upon MNNG stimulation", "setting": "HeLa cells [1]; 100 μM 6y, MNNG 50 μM 15 min", "result": "blocks MIF nuclear translocation"}, {"measurement": "MIF localization under control conditions", "setting": "HeLa cells [1]; without MNNG", "result": "did not affect MIF localization"}, {"measurement": "Vmax", "setting": "MIF [2]; 1.4 μM 6y", "result": "0.21±0.02", "unit": "abs/min"}, {"measurement": "Vmax", "setting": "MIF [2]; 2.1 µM 6y", "result": "0.13±0.01", "unit": "abs/min"}, {"measurement": "Vmax", "setting": "MIF [2]; 2.8 μM 6y", "result": "0.08±0.01", "unit": "abs/min"}, {"measurement": "Mode of MIF inhibition", "setting": "MIF [2]; Lineweaver-Burk plot, 0, 1.4, 2.1, 2.8 μM", "result": "noncompetitive"}, {"measurement": "Vmax at highest inhibitor concentration", "setting": "MIF [2]; decreasing from 0.40 ± 0.03 (control)", "result": "0.08 ± 0.01", "unit": "absorbance/min"}, {"measurement": "Restoration of original cell phenotype after MNNG", "setting": "HeLa cells [3]", "result": "mainly (but not completely) restored"}, {"measurement": "Reversibility of binding to MIF", "setting": "MIF [4]", "result": "reversible"}]}]}
